{
  "source": "patent US20190151241A1",
  "about": "“STABLE PHARMACEUTICAL INJECTABLE COMPOSITIONS OF MICAFUNGIN” (CADILA HEALTHCARE LIMITED, priority 2017, published 2019)",
  "assay": "Inventors' finding on stability of micafungin in liquid state",
  "assay_type": "physicochemical",
  "note": "Starred links: 1 amine or outer side, 2 acyl side, 3 side chain; linkers in the order of their positions; H or OH if unused. Positions of bridges follow the written chain, without caps; N, C: chain ends. Non-standard residues stand in square brackets, D forms with d. Residues, ends and D or L forms follow the SMILES beside them. ξ: configuration not given here. *: point of attachment. hTyr(3S-OH,4S-OH,3'-OSO3H) = N[C@H](C(=O)O)[C@H](O)[C@@H](O)c1ccc(O)c(OS(=O)(=O)O)c1; Orn(4R-OH,5R-OH) = O=C([C@H](C[C@@H](O)[C@@H](O)N[*:3])N[*:1])[*:2]; Pro(3S-OH,4S-Me) = C[C@H]1CN[C@H](C(=O)O)[C@H]1O; X1 = CCCCCOc1ccc(-c2cc(-c3ccc(C(=O)*)cc3)no2)cc1; Gln(3R-OH) = NC(=O)C[C@@H](O)[C@H](N)C(=O)O; Hyp = O=C(O)[C@@H]1C[C@@H](O)CN1; ξThr(3R) = C[C@@H](O)C(N)C(=O)O",
  "data": [
    {"smiles": "CCCCCOc1ccc(-c2cc(-c3ccc(C(=O)N[C@H]4C[C@@H](O)[C@@H](O)NC(=O)[C@@H]5[C@@H](O)[C@@H](C)CN5C(=O)[C@H]([C@H](O)CC(N)=O)NC(=O)[C@H]([C@H](O)[C@@H](O)c5ccc(O)c(OS(=O)(=O)O)c5)NC(=O)[C@@H]5C[C@@H](O)CN5C(=O)C([C@@H](C)O)NC4=O)cc3)no2)cc1", "note": "(stereo partly drawn) [micafungin, Micafungin] (X1-[Orn(4R-OH,5R-OH)][ξThr(3R)][Hyp][hTyr(3S-OH,4S-OH,3'-OSO3H)][Gln(3R-OH)][Pro(3S-OH,4S-Me)]; lactam 1-C)", "values": [
      {"measurement": "Stability in liquid state", "result": "heat sensitive and shows temperature dependant degradation in liquid state"}
    ]}
  ]
}
